Each structure is given as a SMILES string. Some results are limits rather than exact numbers.

CDK9/CycT1, sequence (P50750 whole entry): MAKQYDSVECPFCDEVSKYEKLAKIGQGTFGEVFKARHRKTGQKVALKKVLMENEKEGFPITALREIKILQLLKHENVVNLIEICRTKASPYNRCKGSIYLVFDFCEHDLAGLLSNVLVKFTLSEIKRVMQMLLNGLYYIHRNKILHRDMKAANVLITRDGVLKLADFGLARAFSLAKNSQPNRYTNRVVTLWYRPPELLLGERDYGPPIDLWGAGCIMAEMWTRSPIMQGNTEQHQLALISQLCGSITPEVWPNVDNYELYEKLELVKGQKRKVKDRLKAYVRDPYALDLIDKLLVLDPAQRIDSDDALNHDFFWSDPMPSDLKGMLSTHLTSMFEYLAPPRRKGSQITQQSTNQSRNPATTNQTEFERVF
CDK9/CycT1, sequence (O60563 whole entry partner): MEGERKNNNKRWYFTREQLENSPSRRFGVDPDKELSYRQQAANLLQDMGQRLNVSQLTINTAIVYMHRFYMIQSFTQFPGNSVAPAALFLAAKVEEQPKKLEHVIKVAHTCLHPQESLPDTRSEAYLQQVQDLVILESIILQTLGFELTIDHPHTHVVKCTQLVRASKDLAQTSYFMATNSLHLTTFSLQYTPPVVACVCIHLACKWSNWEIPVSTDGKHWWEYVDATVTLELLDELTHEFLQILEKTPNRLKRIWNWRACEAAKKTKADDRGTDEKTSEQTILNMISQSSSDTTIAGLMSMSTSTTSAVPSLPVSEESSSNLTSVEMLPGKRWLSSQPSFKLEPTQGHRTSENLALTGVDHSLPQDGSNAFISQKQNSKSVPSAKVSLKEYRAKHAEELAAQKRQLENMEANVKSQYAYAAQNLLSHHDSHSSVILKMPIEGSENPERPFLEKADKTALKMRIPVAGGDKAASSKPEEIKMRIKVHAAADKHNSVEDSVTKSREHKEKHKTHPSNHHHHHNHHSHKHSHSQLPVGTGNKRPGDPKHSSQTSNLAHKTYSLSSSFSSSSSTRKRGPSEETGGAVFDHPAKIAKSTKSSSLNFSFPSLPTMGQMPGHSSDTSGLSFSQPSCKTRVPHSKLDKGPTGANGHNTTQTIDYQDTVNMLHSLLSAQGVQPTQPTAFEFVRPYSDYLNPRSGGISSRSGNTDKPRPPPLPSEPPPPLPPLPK

This assay concerns the target CDK9/CycT1 (Homo sapiens (Human), UniProt P50750). Put plainly: ADP-Glo Kinase Assay. The class given is biochemical. On the procedure: ADP-Glo assay kit was purchased from Promega and the CDK9/CycT1 protein and PDKtide substrate were purchased from SignalChem. […] The reaction is started by pre-incubating 4 μL of protein (20 nM), 2 μL of substrate (100 μM), and 2 μL of serial diluted drug in 1× assay buffer (50 mM HEPES, 3 mM MgCl2, 3 mM MnCl2, and 1 mM DTT) for 30 minutes. After pre-incubating, 4 μL of ATP (1 μM) is added to each well and incubated for an additional 90 minutes. The ADP-Glo Reagent (10 μL) and Kinase Detection Reagent (20 μL) are added to each well and incubated as recommended by Promega. The reaction is quantified by measuring luminescence and the IC50 is calculated using GraphPad Prism software.
For the compound `CC(C)c1cnn2ccc(-c3ccnc(N[C@H]4CC[C@H](NC5CCOCC5)CC4)n3)nc12` [Compound I-3, trans-N^1-[4-[(3-isopropyl)pyrazolo[1,5-a]pyrimidin-5-yl]pyrimidin-2-yl]-N^4-(tetrahydro-2H-pyran-4-yl)cyclohexane-1,4-diamine], the IC50 was under 1 µM.
Regarding `c1cc(-c2ccn3ncc(C4CCC4)c3n2)nc(N[C@H]2CC[C@H](NC3CCOCC3)CC2)n1` [Compound I-2, trans-N^1-[4-[(3-cyclobutyl)pyrazolo[1,5-a]pyrimidin-5-yl]pyrimidin-2-yl]-N^4-(tetrahydro-2H-pyran-4-yl)cyclohexane-1,4-diamine], the half-inhibitory concentration (IC50) fell in the range of 1 to 5 µM.
`N[C@H]1CC[C@@H](Nc2nccc(-c3ccn4nccc4n3)n2)C1` [Compound I-9, (1S, 3R)-[3-[4-[pyrazolo[1,5-a]pyrimidin-5-yl]pyrimidin-2-yl]aminocyclopentan-1-yl]-1,3-diamine] gave a concentration for half-maximal inhibition (IC50) of under 1 µM.
`CC(C)c1cnn2ccc(-c3ccnc(NC[C@@H]4CCNC[C@H]4O)n3)nc12` (relative stereo) [Compound I-6, trans-5-[2-(3-hydroxypiperidin-4-yl)methylaminopyrimidin-4-yl]-3-isopropylpyrazolo[1,5-a]pyrimidine] gave a half-inhibitory concentration (IC50) of under 1 µM.
The value for `c1cc(-c2ccn3nccc3n2)nc(N[C@H]2CC[C@H](NC3CCOCC3)CC2)n1` [Compound I-10, trans-N^1-[4-[pyrazolo[1,5-a]pyrimidin-5-yl]pyrimidin-2-yl]-N^4-(tetrahydro-2H-pyran-4-yl)cyclohexane-1,4-diamine] was 1 to 5 µM.
The result for `O[C@@H]1CNCC[C@H]1CNc1nccc(-c2ccn3ncc(C4CC4)c3n2)n1` (relative stereo) [Compound I-4, trans-5-[2-(3-hydroxypiperidin-4-yl)methylaminopyrimidin-4-yl]-3-cyclopropylpyrazolo[1,5-a]pyrimidine] reads under 1 µM; that for `CC(C)c1cnn2ccc(-c3ccnc(N[C@H]4CC[C@H](N)C4)n3)nc12` [Compound I-14, (1S, 3S)-[3-[4-[3-isopropylpyrazolo[1,5-a]pyrimidin-5-yl]pyrimidin-2-yl]aminocyclopentan-1-yl]-1,3-diamine], under 1 µM.
For `Cc1cc2nc(-c3ccnc(N[C@H]4CC[C@H](N)C4)n3)ccn2n1` [Compound I-13, (1S, 3S)-[3-[4-[2-methylpyrazolo[1,5-a]pyrimidin-5-yl]pyrimidin-2-yl]aminocyclopentan-1-yl]-1,3-diamine], the IC50 lay in the range of 5 to 10 µM.
In turn, `N[C@H]1CC[C@H](Nc2nccc(-c3ccn4nccc4n3)n2)C1` [Compound I-11, (1S, 3S)-[3-[4-[pyrazolo[1,5-a]pyrimidin-5-yl]pyrimidin-2-yl]aminocyclopentan-1-yl]-1,3-diamine] registered an IC50 of under 1 µM.
The result for `c1cc(-c2ccn3nccc3n2)nc(NC2CCNCC2)n1` [Compound I-8, trans-5-[2-(piperidin-4-yl)aminopyrimidin-4-yl]pyrazolo[1,5-a]pyrimidine] reads 1 to 5 µM.
The value for `Cc1cnn2ccc(-c3ccnc(N[C@H]4CC[C@H](N)C4)n3)nc12` [Compound I-12, (1S, 3S)-[3-[4-[3-methylpyrazolo[1,5-a]pyrimidin-5-yl]pyrimidin-2-yl]aminocyclopentan-1-yl]-1,3-diamine] was under 1 µM.
`O[C@@H]1CNCC[C@H]1CNc1nccc(-c2ccn3ncc(C4CCC4)c3n2)n1` (relative stereo) [Compound I-5, trans-5-[2-(3-hydroxypiperidin-4-yl)methylaminopyrimidin-4-yl]-3-cyclobutylpyrazolo[1,5-a]pyrimidine] displayed a 50% inhibitory concentration (IC50) of 1 to 5 µM.
In turn, `c1cc(-c2ccn3ncc(C4CC4)c3n2)nc(N[C@H]2CC[C@H](NC3CCOCC3)CC2)n1` [Compound I-1, trans-N^1-[4-[(3-cyclopropyl)pyrazolo[1,5-a]pyrimidin-5-yl]pyrimidin-2-yl]-N^4-(tetrahydro-2H-pyran-4-yl)cyclohexane-1,4-diamine] showed a concentration for half-maximal inhibition (IC50) of 1 to 5 µM.
The result for `O[C@@H]1CNCC[C@H]1CNc1nccc(-c2ccn3nccc3n2)n1` (relative stereo) [Compound I-7, trans-5-[2-(3-hydroxypiperidin-4-yl)methylaminopyrimidin-4-yl]pyrazolo[1,5-a]pyrimidine] reads 1 to 5 µM.

For the origin of these results see patent US20230322792A1, “CDK9 INHIBITORS” (Biolexis Therapeutics, Inc., priority 2022, published 2023).
